Series [1] has as its system P388. Put plainly: Antitumor activity against mouse P388 cells allografted in BDF1 mouse assessed as increase of host survival time at 200 mg/kg, ip qd for 9 days. Format: functional.
Series [2] deals with Mus musculus. Put plainly: Toxicity in mouse P388 cells allografted BDF1 mouse assessed as mortality at 200 mg/kg, ip qd for 9 days. Format: organism-based. Details: dose 200 mg/kg, route intraperitoneal. The conditions noted are these: in vivo, 216 h.
Series [3] deals with L1210. Put plainly: Antitumor activity against mouse L1210 cells allografted in BDF1 mouse assessed as increase of host survival time at 100 mg/kg, ip. In kind it is functional.
For series [4], the target named is T1, Asparagine synthetase [glutamine-hydrolyzing] (Rattus norvegicus) (UniProt P49088).
T1 sequence (whole entry): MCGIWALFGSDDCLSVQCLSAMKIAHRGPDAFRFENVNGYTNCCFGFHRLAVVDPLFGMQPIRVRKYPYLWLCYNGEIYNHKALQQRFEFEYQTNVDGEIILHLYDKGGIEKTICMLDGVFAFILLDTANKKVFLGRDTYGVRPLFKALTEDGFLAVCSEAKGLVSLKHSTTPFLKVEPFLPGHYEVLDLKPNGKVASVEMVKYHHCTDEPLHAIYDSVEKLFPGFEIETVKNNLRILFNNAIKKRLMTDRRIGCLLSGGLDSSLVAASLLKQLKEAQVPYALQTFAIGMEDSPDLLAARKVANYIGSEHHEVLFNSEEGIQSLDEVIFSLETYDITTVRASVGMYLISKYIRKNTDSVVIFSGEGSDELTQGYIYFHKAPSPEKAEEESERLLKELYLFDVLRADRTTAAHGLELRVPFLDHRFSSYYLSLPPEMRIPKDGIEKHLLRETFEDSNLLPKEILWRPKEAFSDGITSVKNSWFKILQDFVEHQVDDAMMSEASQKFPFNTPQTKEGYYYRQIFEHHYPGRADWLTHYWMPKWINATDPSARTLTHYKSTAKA
Nature of the series: Inhibition of asparagine synthetase in rat Novikoff hepatoma.

The text below walks through data of ChEMBL document CHEMBL3244211, “5-Carboxamido-4-amino-3-isoxazolidone, and asparagine analogue” (J Med Chem, 1978).

SMILES strings stand for the structures. The source made the active and inactive calls. No cut-off for these calls is given here.

On to `NC(=O)[C@H]1ONC(=O)[C@@H]1N` (relative stereo), for which the outcome in series [1] and in series [3] was inactive. The Activity entry in series [2] is on record as “Non-toxic”. For the same compound, the inhibition result in series [4] is “inactive”.

For `O=C(NO)[C@H]1N[C@@H]1C(=O)NO` (relative stereo), the T/C in series [1] (route intraperitoneal) stood at 128%. The Activity entry in series [2] is listed as “Non-toxic”; in series [3] (route intraperitoneal), 13%.
